This is an account of results in patent US12606543B2, “Indole derivatives as serotonergic agents useful for the treatment of disorders related thereto” (priority 2023, dated 2026).

The nature of series [1]: Plasma protein binding by equilibrium dialysis, rat. The procedure:
1. The Frozen Plasma (Stored at −80° C.) was Thawed Immediately in a 37° C. Water Bath.
The working solution of test compounds and control compound was prepared in DMSO at the concentration of 200 μM, and then the working solution was spiked into plasma. The final concentration of compound was 1 μM. The final concentration of DMSO was 0.5%. Ketoconazole was used as positive control in the assay.
The dialysis membranes were soaked in ultrapure water for 60 minutes to separate strips, then in 20% ethanol for 20 minutes, finally in dialysis buffer for 20 minutes.
The dialysis set up was assembled according to the manufacturer's instruction. Each Cell was with 150 μL of plasma sample and dialyzed against equal volume of dialysis buffer (PBS). The assay was performed in duplicate. The dialysis plate was sealed and incubated in an incubator at 37° C. with 5% CO2 at 100 rpm for 6 hours. At the end of incubation, 50 μL of samples from both buffer and plasma chambers were transferred to wells of a 96-well plate.
50 μL of plasma was added to each buffer samples and an equal volume of PBS was supplemented to the collected plasma sample. 400 μL of precipitation buffer acetonitrile containing internal standards (IS, 200 nM labetalol, 100 nM tolbutamide and 100 nM ketoprofen) was added to precipitate protein and release compounds. Samples were vortexed for 2 minutes and centrifuged for 30 minutes at 3,220 g. Aliquot of 50 μL of the supernatant was diluted by 150 μL acetonitrile containing internal standards: ultra-pure H2O=1:1, and the mixture was used for LC-MS/MS analysis.
All calculations were carried out using Microsoft Excel. The concentrations of test compounds in the buffer and plasma chambers were determined from peak area ratios. The percentages of bound compound were calculated as follows: […]
The working solution of test compounds and control compound was prepared in DMSO at the concentration of 200 μM, and then the working solution was spiked into plasma. The final concentration of compound was […]. The final concentration of DMSO was 0.5%. Ketoconazole was used as positive control in the assay.

A short description of series [2]: Plasma protein binding by equilibrium dialysis, human. Format: in vitro ADME. The conditions noted are these: for recovery at 6 h, 1 µM / fraction unbound at 6 h, 1 μM: human, plasma; for fraction unbound at 6 h, 1 μM: read-out: % Bound (converted). The procedure: (§1) The final concentration of compound was 1 μM. The final concentration of DMSO was 0.5%. Ketoconazole was used as positive control in the assay.
(§2) The assay was performed in duplicate.
(§3) All calculations were carried out using Microsoft Excel. […] The percentages of bound compound were calculated as follows: […]
(§4) Ketoconazole was used as positive control in the assay.
For orientation: In equilibrium dialysis only unbound substance equilibrates across the membrane.

Series [3] can be described thus: Plasma protein binding by equilibrium dialysis, dog. To be noted: for recovery at 6 h, 1 µM: dog. Format: in vitro ADME. The procedure:
as §1, §2, §3, §4

Series [4] in a line: Plasma protein binding by equilibrium dialysis, mouse. Format: in vitro ADME. To be noted: for recovery at 6 h, 1 µM: CD-1, mouse, plasma. The procedure: as §1, §2, §3, §4
The mark [5] stands for this setting: human plasma, equilibrium dialysis, 37° C., 6 hours.
Where [6] appears, read: mouse plasma, equilibrium dialysis, 37° C., 6 hours.

Each structure is given as a SMILES string.

Take `CC(=O)N1CCN(c2ccc(OCC3COC(Cn4ccnc4)(c4ccc(Cl)cc4Cl)O3)cc2)CC1` (stereo not shown) [Ketoconazole, reference compound]: the “% Remaining @ 6 hours” value came to 101.20% in series [1] (Rat plasma, 1 μM, 37° C.); 109.42% in series [1] (rat plasma); 114.03% in series [2] (Human plasma, 1 μM, 6 hours, 37° C.); 99.64% in series [2] (human plasma, 6 hours); 92.22% in series [3] (Dog plasma, 1 μM, 6 hours, 37° C.); 87.36% in series [3] (dog plasma, 6 hours). Further, the “% Remaining @ 6 hours” value in series [4] (Mouse plasma, 1 μM, 6 hours, 37° C.) turned out to be 103.60%; in series [4] (mouse plasma, 6 hours), 108.54%. The recovery at 6 h, 1 µM in series [1] (SD, rat) was determined as 105%; in series [1] (Sprague-Dawley (SD), rat), 101%; in series [2] (Human plasma, 1 μM, equilibrium dialysis 6 hours), 112%; in series [2] (setting [5]), 101%; in series [3] (Beagle, Dog plasma, 1 μM, equilibrium dialysis 6 hours), 87.2%; in series [3] (Beagle, dog plasma, equilibrium dialysis, 37° C., 6 hours) it was 86.1%. The recovery at 6 h, 1 µM in series [4] (Mouse plasma, 1 μM, equilibrium dialysis 6 hours) turned out to be 109%; in series [4] (setting [6]), 94.7%. Also, the fraction unbound at 6 h, 1 μM was 0.0045 in series [1] (Sprague-Dawley, rat, plasma); 0.0088 in series [2] (Human plasma, 1 μM, equilibrium dialysis 6 hours, 37° C.); 0.0076 in series [2] (setting [5]); 0.0105 in series [3] (Beagle, dog plasma, equilibrium dialysis, 37° C., 6 hours, read-out: % Bound (converted)); 0.0068 in series [4] (CD-1, Mouse plasma, 1 μM, equilibrium dialysis 6 hours, 37° C., read-out: % Bound (converted)). Also, the “% Bound” value in series [4] (setting [6]) is given as 99.32%.
